row,SMILES,melting point
1,"CCCn1nc2c(N)nc3ccccc3c2c1N [Example 1, 2-Propyl-2H-pyrazolo[3,4-c]quinoline-1,4-diamine]",253 °C (dec.)
2,"CCCn1nc2c(N)nc3ccccc3c2c1NCC [Example 2, N^1-Ethyl-2-propyl-2H-pyrazolo[3,4-c]quinoline-1,4-diamine]",193 to 194 °C
3,"CCCn1nc2c(N)nc3ccccc3c2c1NCCC1CCN(C(=O)NC(C)C)CC1 [Example 5, 4-{2-[(4-Amino-2-propyl-2H-pyrazolo[3,4-c]quinolin-1-yl)amino]ethyl}-N-isopropylpiperidine-1-carboxamide]",168 to 170 °C
4,"CCCn1nc2c(N)nc3ccccc3c2c1NCCC1CCN(C(C)=O)CC1 [Example 6, N^1-[2-(1-Acetylpiperidin-4-yl)ethyl]-2-propyl-2H-pyrazolo[3,4-c]quinoline-1,4-diamine]",203 to 206 °C
5,"CCCn1nc2c(N)nc3ccccc3c2c1NC [Example 35, N^1-Methyl-2-propyl-2H-pyrazolo[3,4-c]quinoline-1,4-diamine]",200 to 201 °C
6,"CCCn1nc2c(N)nc3ccccc3c2c1NC(C)C [Example 36, N^1-Isopropyl-2-propyl-2H-pyrazolo[3,4-c]quinoline-1,4-diamine]",199 to 200 °C
7,"CCCn1nc2c(N)nc3ccccc3c2c1NCc1ccccc1 [Example 37, N^1-Benzyl-2-propyl-2H-pyrazolo[3,4-c]quinoline-1,4-diamine]",160 to 161 °C
